Reference: US20240116994A1, “Peptides And Use Thereof For Diagnosing And Treating Antiphospholipid Syndrome” (UNIVERSITE DE GENEVE, priority 2021, published 2024)
Where no end group is shown, it is not given here.

Legend:
[1] = tested on: binding of aPL to IIa-8.0-biot-2x; assay: Inhibition experiments: remaining reactivity of pre-treated aPL on IIa-8.0-biot-2x ELISA; set-up: species or system Human; details: aPL preincubated 90 min at RT with beads 15, 30 and 60 pmol
Protocol: To examine the functional ability of IIa-5.0, IIa-7.1, IIa-8.0 peptides and R39-R43 to inhibit the activity of pool of aPL isolated from APS patients, the remaining reactivity of aPL was evaluated for IIa-8.0-biot-2x which had previously been treated with increasing concentration of peptides. […] The flag-type orientation prevents potential interactions with the plate or with itself, particularly in solution. Streptavidin magnetic beads associated with IIa-5.0-biot-2x, IIa-7.1-biot-2x and Ha-8.0-biot-2x peptides have been generated. aPL was treated with increasing concentrations of beads before to measure the remaining binding activity of aPL on IIa-8.0-biot-2x ELISA (FIG. 7C).
To assess the ability of IIa-5.0-2x, IIa-7.1-2x and IIa-8.0-2x to inhibit in vitro the binding of aPL to IIa-8.0-biot-2x. aPL pool sera were preincubated for 90 min at RT with increasing concentrations (1, 10 and 10011 g/ml) of monomeric, dimeric IIa-5.0, IIa-7.1 and IIa-8.0 peptides and of IIa-5.0-biot-2x, IIa-7.1-biot-2x and IIa-8.0-biot-2x-associated beads (15, 30 and 60 pmol). 120 pmol correspond to the amount of IIa-8.0-biot-2x coated in well of Streptavidin Coated High Capacity Plates 96 well plates (Thermofisher). After the pre-incubation time, the serum was added anti-b2GP1 IgG (anti-IIa-8.0-2x) ELISA according to the protocol.

[2] = tested on: aPL (pool from APS patients); assay: Determination of aPL by ELISA on coated peptides / biotinylated peptides (custom immunoassay); assay type: binding, Human
Protocol: Determination of aPL by ELISA—MaxiSorp™ 96 well plates (Nunc) or Streptavidin plate (Thermofisher) were coated with 10 μg/ml recombinant domains of β2GP1, peptides or biotinylated-peptide prior to incubation with aPLA. Secondary anti-human antibodies conjugated to IR800CW (Rockland) or HRP were used. Protein- or peptide-bound antibodies were detected and quantified by the Odyssey system (Li-Cor Biosciences) or absorbance in optical densities (OD) was determined at 405 nm (molecular Devices™ Filtermax).
The de Groot's research group has pointed at the importance of hydrophobic character of the plate during coating of R39-R43 epitope. In order to abrogate of the plate-dependent aPL binding, the Ia-1 and Ib-1 peptides as well as the R39-R43 with a biotin at their N-terminal were synthetized and coated a streptavidin plate. In this configuration, the different peptides are flag oriented in the space preventing any interaction with the plate. It was thus observed that the flag-type orientation of R39-R43-biot leads to 8.52×more interaction with aPL while they show 9.63×more binding for Ib-1-biot presenting the same position. […] The surface plasmon resonance (SPR) technique is used to determine the relative avidity of aPL for R39-R43-biot and Ib-1-biot. The interaction between aPL and immobilized R39-R43-biot or Ib-1-biot is monitored by flowing various concentrations of aPL over a R39-R43-biot- or Ib-1-biot-coated chip surface (FIG. 1C). Through SPR experiments, it appears that aPL avidity for Ib-1-biot presents a resonance unit (RU) of 51.49 at 1/1,000 of dilution and a RU of 27.61 at 1/10,000 of dilution while, at the same dilution, it present a RU of 27.36 and a RU of 17.99 with R39-R43-biot, respectively (FIG. 1C). However, at higher concentrations, the peptides seems to show no differences in the interactions with aPL. […] Considering that IgG valency, it was decided to generate a dimeric Ib-1-biot peptide (Ib-1-biot-2x). This new polypeptide carries thus two optimized epitopes which have the opportunity to interact with two Fab fragment present on aPL. […] At higher concentration, i.e dilution of 1/100, the avidity for dimeric peptide is 28×more than for the monomeric (FIG. 1D).
It was performed a peptide substitution scan of Ib-1-biot VSRGGMRKKKKPLTG (SEQ ID NO: 6) carrying the optimized epitope Ib-1-biot and based on an exchange of the underlined amino acid positions with the 20 main amino acids. The resulting peptide microarrays contained 140 different peptides. It was observed that the peptide substitution of the position n° 1, 2, 12 and 15 have significant influences on the ability to interact with aPL from patients 1, 2, 3, 4 and, in particular, form the plasma pool. Indeed, the substitution of the position 1, 12 or 15 by an Arginine (R) or a Lysine (K) increases the avidity of the peptide for all aPL from patients. […] In this context, the enhancement relative to Ib-1.0-biot-2x of identified peptides was evaluated (FIG. 2A). […] However, streptavidin being known to produce unspecific binding, it was used the ratio between aPL and a pool of human plasma as control (B/B0) (FIG. 2B, upper panel). This representation therefore allows to distinguish the real levels of interactions. It was then performed a dilution assay from dilution of 1/100 to 1/1,200,000 and it was observed relevant differences between the different identified peptides. By comparison of area under the curve (AUC), it was possible to detect the most prone-interacting peptide with aPL. Thus, the peptide IIa-8.0-biot-2x obtained the higher AUC (FIG. 2B, bottom panel). To formally quantify the ability of aPL to interact with IIa-8.0-biot-2x, it was monitored by flowing various concentrations of aPL over a IIa-8.0-biot-2x-coated chip surface (FIG. 2C). […] In FIG. 2C, bottom panel, it can be appreciated more precisely the improvement of the quality of interactions. […]

inhibition of aPL binding to IIa-8.0-biot-2x ELISA by peptide associated with streptavidin magnetic beads [1]: dose dependently inhibited
Substance: IIa-8.0-biot-2x: dimeric biotinylated IIa-8.0 peptide; also used associated with streptavidin magnetic beads (RSRGGMRKRKKPLTGRSRGGMRKRKKPLTG; also: dimeric peptide (two IIa-8.0 copies), biotinylated, site not given here)
ability to interact with aPL, enhancement relative to Ib-1.0-biot-2x ([2]; ELISA, four dilutions of aPL pool (FIG. 2A)): significantly increased with at least three of the four dilutions
area under the curve (AUC) of dilution assay, B/B0 ([2]; dilution 1/100 to 1/1,200,000, aPL pool / pool of healthy plasma (FIG. 2B)): higher AUC
